According to patent US20170119851A1, “METHODS OF TREATING ANOREXIA” (NOVARTIS AG, priority 2014, published 2017):
No end group written: not given here.

How the values were obtained:
in vivo [1] = details: male, C57BL, mouse, plasma, 57 ug
Experimental: Male C57BL mice were housed one per cage with normal chow diet and housed in normal light cycle (light on 6:00-18:00).
10 min prior to the treatment, tail blood samples were taken and plasma (10 μl) was obtained. […] After being dosed, the mice remained in the isoflurane chamber for 2 min before placed back in their home cages. […] Tail blood samples were taken at 2, 5, 10, 30 min and 1, 2, 4 and 24 h post dose. Plasma samples were aliquoted and stored at −80° C. until analysis.

C57BL mice [2] = test: Food intake after intranasal (IN) AgRP in mice; type: in vivo; details: 57 μg AgRP in saline
Experimental: One day prior to treatment, 4-h food intake was measured and animals grouped to match group means of food intake. On the day of the study, food was removed at 9:00 am. […] After dosing, the mice remained in the isoflurane chamber in a supine position for 3 min before being returned to their cages. A pre-weighed amount of food was given to the animals before the dark cycle. Food weight was recorded at 4 and 24 hours post dose.
All data were analyzed using an unpaired t-test comparing saline and AgRP in saline. A p value of <0.05 or lower was taken to be statistically significant. All data were analyzed and plotted using GraphPad Prism6 software (San Diego, Calif.).

C57BL mice [3] = test: Food intake after subcutaneous (SC) AgRP in mice; type: in vivo; details: 57 μg AgRP
Experimental: One day prior to treatment, 4-h food intake was measured and animals grouped to match group means of food intake. On the day of the study, animals were dosed via SC injection between 10:30 to 11:00 am. Pre-weighed food was provided to the mice prior to the dark cycle (11:00 am). At 4 and 24 h post dose food intake was measured.
All data were analyzed using an unpaired t-test comparing PBS and AgRP in saline. A p value of <0.05 or lower was taken to be statistically significant. All data were analyzed and plotted using GraphPad Prism6 software (San Diego, Calif.).

[4] = system: lean Sprague Dawley (SD) rats; test: Food intake after intranasal AgRP in lean rats; type: in vivo
Experimental: The purpose of the following study was to determine if intranasal—(IN) administered AgRP would stimulate food intake in lean Sprague Dawley (SD) rats.
8-12 week-old male SD rats were housed one per cage with a standard chow diet and normal light cycle.
One and two days prior to dosing, 24 h food intake and body weight were measured. Animals were grouped based on body weight and food intake. […] Animals were actively sniffing when compound was administered. After dosing, rats were returned to their home cages. A pre-weighed amount of food was given to the animals after dosing. Food weight was recorded at 4 and 24 hours post dose.
All data were analyzed using an unpaired t-test comparing saline and AgRP. A p value of <0.05 or lower was taken to be statistically significant. All data were analyzed and plotted using GraphPad Prism6 software (San Diego, Calif.).

MC4R [5] = target: T1, MC4R (Homo sapiens, UniProt P32245); test: HTRF cAMP assay, HEK293/MC4R stable cell line; type: cell-based; details: HEK293/MC4R cells, titration against NDP-aMSH
T1 construct: expressed in transfected cells; host or cells: HEK293
Experimental: A) HTRF cAMP Assay Protocol:
• Flash spindown the 384 well plate at 1200 RPM • Incubated the cells for 15 minutes at an ambient temperature • Add 10 μL of the following reagents into each well based on your sample alignment
• Flash spindown the 384 well plate at 1200 RPM • Incubate the cells for an additional 30 minutes at an ambient temperature • *This incubation time is not so strict. +/−5 min should be OK according to assay development data. • Add 10 μL of cAMP-d2 (diluted 1:4 in the lysis buffer provided in the kit) • *Important!! For Negative control, not cAMP-d2, but just the lysis buffer • Add 10 μL of anti-cAMP Cryptate (diluted 1:4 in the lysis buffer provided in the kit) • Flash spindown at 1200 RPM. • Incubate the assay plate for 45-60 min at an ambient temperature. • Transfer […] of each sample to a tissue culture treated white polystyrene 384-well assay plate (Corning, Cat. No. 3572) • Flash spindown at 1200 RPM. • Measure the fluorescence with a Molecular device M5 or M5e with the following setting.

MC3R [6] = target: T2, MC3R (Homo sapiens, UniProt P41968); test: MC3 cAMP assay, HEK293/MC3R stable cell line (antagonist protocol); type: cell-based; details: HEK293/MC3R cells, antagonist protocol against NDP-α-MSH EC80
T2 construct: expressed in transfected cells; host or cells: HEK293
Experimental: Cells: HEK293/MC3R stable cell line Complete medium: DMEM/F12 1:1 (Gibco, Cat. No. 11039) • 10% FBS (Heat inactivated, Gibco, Cat. No. 10082)× • 200 μg/mL Geneticin (Gibco, Cat. No. 10131) • 2 mM L-glutamine (GIBCO, Cat No. 25030) Flask: 150 cm^2 tissue culture treated flask (Corning, Cat. No. 430825).
• I. Aspirate conditioned medium • II. Wash with 2.5 mL of DPBS (Gibco, Cat. No. 14190) • III. Add 2 mL of 0.25% Trypsin-EDTA (Gibco, Cat. No. 25200-056) • IV. Leave the flask for few minutes in incubator, tap the flask a few time to detach cells. • V. Add 10 mL of the complete medium to stop Trypsin-EDTA treatment and mix it well by pipetting softly a few times to re-suspend clumping cells • VI. Transfer 1.5 ml of cells into a new 150 cm flask containing 20 ml of complete media • VII. Transfer the remaining suspension into a 50 mL centrifuge tube • VIII. Spin down at 1200 rpm for 4 mins. Aspirate supernatant • IX. Add 6 mL of the assay buffer to the tube and re-suspend the cells by softly pipetting • X. Transfer 0.5 mL of the suspension into a sample vial for Vi-cell and add another 0.5 ml of PBS. • XI. Count cell number by using a Vi-cell *Record cell density and viability every time • i. Plate cells at 4K/well in 10 ul/well of assay buffer containing IBMX. • ii. Leave the plate in incubator for ˜30 mins before assay is started on suspension cells. […]

in vivo [7] = details: male, Sprague-Dawley, rat, plasma, iv, 10 nanomoles per rat
Experimental: C) In Vivo Assay Description:
10 nanomoles of conjugate was dissolved in 300 L of PBS (Phosphate buffered saline) to form Dosing solution. Dosing solution (300 M) was administered intravenously to male Sprague-Dawley rats via lateral tail vein (corresponding to a dose 10 nanomoles per rat). Blood was collected via tail snip at prescribed times after dosing and immediately placed on wet ice. These samples were centrifuged at 4 C, with supernatant plasma transferred to a fresh tube for analysis.
For assay, intermediates were diluted to a top standard concentration of 2500 pg/mL and then diluted 2-fold serially to 16 points including a zero dose standard in ELISA sample diluent with bovine serum albumin (BSA).
Plasma samples were diluted 10-fold and then 5-fold serially out to 31,250-fold in ELISA sample diluent with BSA.
Plates were aspirated and blocked with a milk-based blocker at 90 uL/well for 2 hours at RT. All further incubations were carried out at 30 uL/well. Plates were aspirated again and samples and standards were added to the wells for 2 hours at RT. […] The plates were washed again and a HRP-labeled streptavidin reagent was added to the wells for 30 minutes at RT. Plates were washed a final time and a chemiluminescent substrate was added to all wells and plates were read immediately on a Spectramx M5 for light output.
Raw data was organized and analyzed for basic PK parameters.

MC4R [8] = target: T1, MC4R; details: Jackson et al., Biochemistry 41, 7565-7572; cited from earlier work
MC3R and MC4R = details: Jackson et al., Biochemistry 41, 7565-7572; cited from earlier work
MC3R [9] = target: T2, MC3R; details: Jackson et al., Biochemistry 41, 7565-7572; cited from earlier work

T1 sequence (P32245 whole entry, species assumed): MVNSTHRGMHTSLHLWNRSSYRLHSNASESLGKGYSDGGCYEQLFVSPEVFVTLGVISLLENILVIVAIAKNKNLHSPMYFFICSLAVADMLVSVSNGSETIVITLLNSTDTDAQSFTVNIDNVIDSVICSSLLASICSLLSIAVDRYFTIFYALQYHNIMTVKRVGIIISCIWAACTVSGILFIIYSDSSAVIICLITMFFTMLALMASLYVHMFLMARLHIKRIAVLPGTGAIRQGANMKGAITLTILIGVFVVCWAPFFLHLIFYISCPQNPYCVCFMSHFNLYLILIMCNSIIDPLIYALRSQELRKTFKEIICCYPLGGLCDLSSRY
T2 sequence (P41968 whole entry, species assumed): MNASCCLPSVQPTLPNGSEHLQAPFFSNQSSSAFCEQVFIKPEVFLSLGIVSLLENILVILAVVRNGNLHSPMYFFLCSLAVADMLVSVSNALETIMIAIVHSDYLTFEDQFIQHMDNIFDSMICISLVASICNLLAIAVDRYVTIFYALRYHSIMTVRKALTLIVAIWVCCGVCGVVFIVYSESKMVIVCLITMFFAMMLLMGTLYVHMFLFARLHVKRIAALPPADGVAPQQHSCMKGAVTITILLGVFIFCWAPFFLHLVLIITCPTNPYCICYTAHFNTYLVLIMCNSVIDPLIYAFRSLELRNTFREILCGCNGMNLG

Compound | EC50 (MC4R [5]) [nM] | EC50 (MC3R [6]) [nM] | half-life (in vivo [7]) [h] | MC4R affinity compared with AgRP(83-132) (MC4R [8]) | inverse agonism compared with AgRP(83-132) (MC3R and MC4R) | MC3R affinity compared with AgRP(83-132) (MC3R [9]) | also measured
CSCC[C@@H]1NC(=O)[C@H](C)NC(=O)[C@H]([C@@H](C)O)NC(=O)CNC(=O)[C@H](CC(C)C)NC(=O)[C@H](CCCCN)NC(=O)[C@H](CCCNC(=N)N)NC(=O)[C@@H]2CSSC[C@@H]3NC(=O)[C@@H]4CCCN4C(=O)[C@H](C(C)C)NC(=O)[C@H](CCC(N)=O)NC(=O)[C@H](CCC(N)=O)NC(=O)CNC(=O)[C@H](CC(C)C)NC(=O)[C@@H]4CSSC[C@H](NC(=O)[C@H]([C@@H](C)O)NC(=O)[C@H](C)NC(=O)[C@H](CSSC[C@@H](C(=O)N[C@@H](CO)C(=O)N[C@@H](CCCNC(=N)N)C(=O)N[C@H](C(=O)O)[C@@H](C)O)NC(=O)[C@@H]5CCCN5C(=O)[C@H](CC(N)=O)NC1=O)NC(=O)[C@@H]1CCCN1C(=O)[C@H](CC(=O)O)NC(=O)[C@H](CSSC[C@H](NC(=O)[C@H](CCCNC(=N)N)NC(=O)[C@H](CCCNC(=N)N)NC(=O)[C@H](CO)NC(=O)[C@@H](N)CO)C(=O)N[C@@H](C(C)C)C(=O)N[C@@H](CCCNC(=N)N)C(=O)N[C@@H](CC(C)C)C(=O)N[C@@H](Cc1c[nH]cn1)C(=O)N[C@@H](CCC(=O)O)C(=O)N[C@@H](CO)C(=O)N4)NC3=O)C(=O)N[C@@H](Cc1ccc(O)cc1)C(=O)N[C@H]1CSSC[C@H](NC(=O)[C@H](Cc3ccccc3)NC(=O)[C@H](C)NC(=O)[C@H](CC(N)=O)NC(=O)[C@H](Cc3ccccc3)NC(=O)[C@H](Cc3ccccc3)NC(=O)[C@H](CCCNC(=N)N)NC1=O)C(=O)N[C@@H](Cc1ccc(O)cc1)C(=O)N2 [AgRP, Agouti-Related Peptide] |  |  |  |  |  |  | Cmax (in vivo [1]; other: intranasal (IN)): 97.6 ng/mL; Tmax (in vivo [1]; other: intranasal (IN)): 1 h; Cmax (in vivo [1]; sc): 2810 ng/mL; Tmax (in vivo [1]; sc): 0.5 h; food intake vs saline (unpaired t-test) (C57BL mice [2]; 4 h post dose): significant effect; food intake vs saline (unpaired t-test) (C57BL mice [2]; 24 h post dose): significant effect; food intake vs PBS (unpaired t-test) (C57BL mice [3]; 4 h post dose): did not resulted in a significant effect; food intake vs PBS (unpaired t-test) (C57BL mice [3]; 24 h post dose): did not resulted in a significant effect; food intake vs saline (unpaired t-test) ([4]; 57 μg AgRP, 24 h post dose): significant increase; food intake vs saline (unpaired t-test) ([4]; 171 μg AgRP, 4 h post dose): significant effect; food intake vs saline (unpaired t-test) ([4]; 171 μg AgRP, 24 h post dose): significant increase
CCCCCCCCCCCC(CCCCCCCCCCC(=O)O)(C(=O)O)C(=O)NCCOCCOCCOCCOCCOCCOCCOCCOCCOCCOCCOCCOCCOCCOCCOCCOCCOCCOCCOCCOCCOCCOCCOCCOCCC(=O)N[C@@H](CO)C(=O)N[C@@H](CO)C(=O)N[C@@H](CCCNC(=N)N)C(=O)N[C@@H](CCCNC(=N)N)C(=O)N[C@H]1CSSC[C@@H]2NC(=O)[C@@H]3CSSC[C@@H]4NC(=O)[C@H](Cc5ccc(O)cc5)NC(=O)[C@@H]5CSSC[C@H](NC(=O)[C@H](Cc6ccc(O)cc6)NC(=O)[C@H](CSSC[C@H](NC(=O)[C@H](CO)NC(=O)[C@H](CCC(=O)O)NC(=O)[C@H](Cc6c[nH]cn6)NC(=O)[C@H](CC(C)C)NC(=O)[C@H](CCCNC(=N)N)NC(=O)[C@H](C(C)C)NC1=O)C(=O)N[C@@H](CC(C)C)C(=O)NCC(=O)N[C@@H](CCC(N)=O)C(=O)N[C@@H](CCC(N)=O)C(=O)N[C@@H](C(C)C)C(=O)N1CCC[C@H]1C(=O)N3)NC(=O)[C@H]([C@@H](C)O)NC(=O)[C@H](C)NC(=O)[C@H](CSSC[C@@H](C(=O)N[C@@H](CO)C(=O)N[C@@H](CCCNC(=N)N)C(=O)N[C@H](C(=O)O)[C@@H](C)O)NC(=O)[C@@H]1CCCN1C(=O)[C@H](CC(N)=O)NC(=O)[C@H](CCSC)NC(=O)[C@H](C)NC(=O)[C@H]([C@@H](C)O)NC(=O)CNC(=O)[C@H](CC(C)C)NC(=O)[C@H](CCCCN)NC(=O)[C@H](CCCNC(=N)N)NC4=O)NC(=O)[C@@H]1CCCN1C(=O)[C@H](CC(=O)O)NC2=O)C(=O)N[C@@H](CCCNC(=N)N)C(=O)N[C@@H](Cc1ccccc1)C(=O)N[C@@H](Cc1ccccc1)C(=O)N[C@@H](CC(N)=O)C(=O)N[C@@H](C)C(=O)N[C@@H](Cc1ccccc1)C(=O)N5 (some centres unmarked) [Example 5A] | 18 | 7 | 20 |  |  |  | 
CCCCCCCCCCCC(CCCCCCCCCCC(=O)O)(C(=O)O)C(=O)NCCOCCOCCOCCOCCOCCOCCOCCOCCOCCOCCOCCOCCOCCOCCOCCOCCOCCOCCOCCOCCOCCOCCOCCOCCC(=O)NCCCC[C@@H]1NC(=O)[C@H](CCCNC(=N)N)NC(=O)[C@@H]2CSSC[C@@H]3NC(=O)[C@@H]4CCCN4C(=O)[C@H](C(C)C)NC(=O)[C@H](CCC(N)=O)NC(=O)[C@H](CCC(N)=O)NC(=O)CNC(=O)[C@H](CC(C)C)NC(=O)[C@@H]4CSSC[C@H](NC(=O)[C@H]([C@@H](C)O)NC(=O)[C@H](C)NC(=O)[C@H](CSSC[C@@H](C(=O)N[C@@H](CO)C(=O)N[C@@H](CCCNC(=N)N)C(=O)N[C@H](C(=O)O)[C@@H](C)O)NC(=O)[C@@H]5CCCN5C(=O)[C@H](CC(N)=O)NC(=O)[C@H](CCSC)NC(=O)[C@H](C)NC(=O)[C@H]([C@@H](C)O)NC(=O)CNC(=O)[C@H](CC(C)C)NC1=O)NC(=O)[C@@H]1CCCN1C(=O)[C@H](CC(=O)O)NC(=O)[C@H](CSSC[C@H](NC(=O)[C@H](CCCNC(=N)N)NC(=O)[C@H](CCCNC(=N)N)NC(=O)[C@H](CO)NC(=O)[C@H](CO)NC(=O)CCOCCOCCOCCOCCOCCOCCOCCOCCOCCOCCOCCOCCOCCOCCOCCOCCOCCOCCOCCOCCOCCOCCOCCOCCNC(=O)C(CCCCCCCCCCC)(CCCCCCCCCCC(=O)O)C(=O)O)C(=O)N[C@@H](C(C)C)C(=O)N[C@@H](CCCNC(=N)N)C(=O)N[C@@H](CC(C)C)C(=O)N[C@@H](Cc1c[nH]cn1)C(=O)N[C@@H](CCC(=O)O)C(=O)N[C@@H](CO)C(=O)N4)NC3=O)C(=O)N[C@@H](Cc1ccc(O)cc1)C(=O)N[C@H]1CSSC[C@H](NC(=O)[C@H](Cc3ccccc3)NC(=O)[C@H](C)NC(=O)[C@H](CC(N)=O)NC(=O)[C@H](Cc3ccccc3)NC(=O)[C@H](Cc3ccccc3)NC(=O)[C@H](CCCNC(=N)N)NC1=O)C(=O)N[C@@H](Cc1ccc(O)cc1)C(=O)N2 (some centres unmarked) [Example 5B] | 167 | 65 | 52 |  |  |  | 
AgRP (87-120): shorter biologically active fragment of AgRP described in Jackson et al. (CVRLHESCLGQQVPCCDPCATCYCRFFNAFCYCR; also: disulfide pairing of this fragment not given here, 9 Cys (C105 partner C129 absent)) |  |  |  | approximately the same | equivalent inverse agonism | approximately the same | 
AgRP(87-132): shorter biologically active fragment of AgRP described in Jackson et al. |  |  |  | approximately the same | equivalent inverse agonism | approximately the same | 
